This experiment concerns Pseudomonas aeruginosa. Briefly: Antibacterial activity against Pseudomonas aeruginosa PAO1 assessed as inhibition of bacterial growth incubated for 24 hrs by broth microdilution method. Conditions: read-out: MIC100. Type of experiment: functional. A general note: In broth dilution the organism is exposed to a series of concentrations in liquid medium.

The source of these data is ChEMBL document CHEMBL4825673, “Total and Semisyntheses of Polymyxin Analogues with 2-Thr or 10-Thr Modifications to Decipher the Structure-Activity Relationship and Improve the Antibacterial Activity” (J Med Chem, 2021).

In brackets after ≈: the same amount, converted by molar mass.

`CC(C)CCCCC(=O)N[C@@H](CCN)C(=O)N[C@H](C(=O)N[C@@H](CCN)C(=O)N[C@H]1CCNC(=O)[C@H]([C@@H](C)OC(=O)[C@H](C)N)NC(=O)[C@H](CCN)NC(=O)[C@H](CCN)NC(=O)[C@H](CC(C)C)NC(=O)[C@@H](Cc2ccccc2)NC(=O)[C@H](CCN)NC1=O)[C@@H](C)OC(=O)[C@H](C)N`: the MIC was determined as 2 µg/mL (≈ 1.5 µM).

`CC[C@H](C)CCCCC(=O)N[C@@H](CCN)C(=O)N[C@H](C(=O)N[C@@H](CCN)C(=O)N[C@H]1CCNC(=O)[C@H]([C@@H](C)OC(=O)[C@@H]2CCCN2)NC(=O)[C@H](CCN)NC(=O)[C@H](CCN)NC(=O)[C@H](CC(C)C)NC(=O)[C@@H](Cc2ccccc2)NC(=O)[C@H](CCN)NC1=O)[C@@H](C)OC(=O)[C@@H]1CCCN1`: the MIC is 2 µg/mL (≈ 1.43 µM).

Take `CCCCCCCC(=O)N[C@@H](CCN)C(=O)NCC(=O)N[C@@H](CCN)C(=O)N[C@H]1CCNC(=O)[C@H]([C@@H](C)O)NC(=O)[C@H](CCN)NC(=O)[C@H](CCN)NC(=O)[C@H](CC(C)C)NC(=O)[C@@H](Cc2ccccc2)NC(=O)[C@H](CCN)NC1=O`: the MIC is 64 µg/mL (≈ 55.9 µM).

`CC(NCC[C@H](NC(=O)[C@H](CCN)NC(=O)CCCCC(C)C)C(=O)N[C@@H](CCN)C(=O)N[C@H]1CCNC(=O)[C@H]([C@@H](C)O)NC(=O)[C@H](CCN)NC(=O)[C@H](CCN)NC(=O)[C@H](CC(C)C)NC(=O)[C@@H](Cc2ccccc2)NC(=O)[C@H](CCN)NC1=O)=C1C(=O)CC(C)(C)CC1=O`: the MIC was determined as 8 µg/mL (≈ 5.91 µM).

Consider `CC[C@H](C)CCCCC(=O)N[C@@H](CCN)C(=O)N[C@H](C(=O)N[C@@H](CCN)C(=O)N[C@H]1CCNC(=O)[C@H]([C@@H](C)O)NC(=O)[C@H](CCN)NC(=O)[C@H](CCN)NC(=O)[C@H](CC(C)C)NC(=O)[C@@H](Cc2ccccc2)NC(=O)[C@H](CCN)NC1=O)[C@@H](C)OC(=O)[C@H](C)N`, for which the MIC amounted to 4 µg/mL (≈ 3.14 µM).

With `CC[C@H](C)CCCCC(=O)N[C@@H](CCN)C(=O)N[C@H](C(=O)N[C@@H](CCN)C(=O)N[C@H]1CCNC(=O)[C@H]([C@@H](C)O)NC(=O)[C@H](CCN)NC(=O)[C@H](CCN)NC(=O)[C@H](CC(C)C)NC(=O)[C@@H](Cc2ccccc2)NC(=O)[C@H](CCN)NC1=O)[C@@H](C)OC(=O)[C@@H](N)C(C)C`, the MIC amounted to 2 µg/mL (≈ 1.54 µM).

As for `CC(C)CCCCC(=O)N[C@@H](CCN)C(=O)N[C@@H](CCN)C(=O)N[C@@H](CCN)C(=O)N[C@H]1CCNC(=O)[C@H]([C@@H](C)O)NC(=O)[C@H](CCN)NC(=O)[C@H](CCN)NC(=O)[C@H](CC(C)C)NC(=O)[C@@H](Cc2ccccc2)NC(=O)[C@H](CCN)NC1=O`, the MIC was determined as 128 µg/mL (≈ 108 µM).

On to `CCCCCCCC(=O)N[C@@H](CCN)C(=O)N[C@@H](CO)C(=O)N[C@@H](CCN)C(=O)N[C@H]1CCNC(=O)[C@H]([C@@H](C)O)NC(=O)[C@H](CCN)NC(=O)[C@H](CCN)NC(=O)[C@H](CC(C)C)NC(=O)[C@@H](Cc2ccccc2)NC(=O)[C@H](CCN)NC1=O`, for which the MIC came out at 2 µg/mL (≈ 1.7 µM).

With `CC(C)CCCCC(=O)N[C@@H](CCN)C(=O)N[C@H](C(=O)N[C@@H](CCN)C(=O)N[C@H]1CCNC(=O)[C@H]([C@@H](C)OC(=O)[C@@H]2CCCN2)NC(=O)[C@H](CCN)NC(=O)[C@H](CCN)NC(=O)[C@H](CC(C)C)NC(=O)[C@@H](Cc2ccccc2)NC(=O)[C@H](CCN)NC1=O)[C@@H](C)OC(=O)[C@@H]1CCCN1`, the MIC worked out at 2 µg/mL (≈ 1.45 µM).

As for `CCCCCCCC(=O)N[C@@H](CCN)C(=O)N[C@H](C(=O)N[C@@H](CCN)C(=O)N[C@H]1CCNC(=O)[C@H](CCSC)NC(=O)[C@H](CCN)NC(=O)[C@H](CCN)NC(=O)[C@H](CC(C)C)NC(=O)[C@@H](Cc2ccccc2)NC(=O)[C@H](CCN)NC1=O)[C@@H](C)O`, the MIC was 4 µg/mL (≈ 3.28 µM).

Consider `CC[C@H](C)CCCCC(=O)N[C@@H](CCN)C(=O)N[C@H](C(=O)N[C@@H](CCN)C(=O)N[C@H]1CCNC(=O)[C@H]([C@@H](C)OC(=O)[C@H](C)N)NC(=O)[C@H](CCN)NC(=O)[C@H](CCN)NC(=O)[C@H](CC(C)C)NC(=O)[C@@H](Cc2ccccc2)NC(=O)[C@H](CCN)NC1=O)[C@@H](C)OC(=O)[C@H](C)N`, for which the MIC came out at 2 µg/mL (≈ 1.49 µM).

Take `CC(N[C@@H](CCN)C(=O)N[C@H](C(=O)N[C@@H](CCN)C(=O)N[C@H]1CCNC(=O)[C@H]([C@@H](C)O)NC(=O)[C@H](CCN)NC(=O)[C@H](CCN)NC(=O)[C@H](CC(C)C)NC(=O)[C@@H](Cc2ccccc2)NC(=O)[C@H](CCN)NC1=O)[C@@H](C)O)=C1C(=O)CC(C)(C)CC1=O`: the MIC amounted to 32 µg/mL (≈ 26.1 µM).

On to `CCCCCCCC(=O)N[C@@H](CCN)C(=O)N[C@H](C(=O)N[C@@H](CCN)C(=O)N[C@H]1CCNC(=O)[C@H](CC(=O)O)NC(=O)[C@H](CCN)NC(=O)[C@H](CCN)NC(=O)[C@H](CC(C)C)NC(=O)[C@@H](Cc2ccccc2)NC(=O)[C@H](CCN)NC1=O)[C@@H](C)O`, for which the MIC was 64 µg/mL (≈ 53.2 µM).

As for `CC[C@H](C)CCCCC(=O)N[C@@H](CCN)C(=O)N[C@H](C(=O)N[C@@H](CCN)C(=O)N[C@H]1CCNC(=O)[C@H]([C@@H](C)OC(=O)CN)NC(=O)[C@H](CCN)NC(=O)[C@H](CCN)NC(=O)[C@H](CC(C)C)NC(=O)[C@@H](Cc2ccccc2)NC(=O)[C@H](CCN)NC1=O)[C@@H](C)OC(=O)CN`, the MIC was found to be 2 µg/mL (≈ 1.52 µM).

As to `CC(C)CCCCC(=O)N[C@@H](CCN)C(=O)N[C@H](C(=O)N[C@@H](CCN)C(=O)N[C@H]1CCNC(=O)[C@H]([C@@H](C)OC(=O)[C@@H](N)CC(=O)O)NC(=O)[C@H](CCN)NC(=O)[C@H](CCN)NC(=O)[C@H](CC(C)C)NC(=O)[C@@H](Cc2ccccc2)NC(=O)[C@H](CCN)NC1=O)[C@@H](C)OC(=O)[C@@H](N)CC(=O)O`, the MIC was determined as 4 µg/mL (≈ 2.82 µM).

For `CC(C)C[C@@H]1NC(=O)[C@@H](Cc2ccccc2)NC(=O)[C@H](CCN)NC(=O)[C@@H](NC(=O)[C@H](CCN)NC(=O)[C@@H](NC(=O)[C@H](CCN)NC(=O)CCCCCCCN(Cc2ccccn2)Cc2ccccn2)[C@@H](C)O)CCNC(=O)[C@H]([C@@H](C)O)NC(=O)[C@H](CCN)NC(=O)[C@H](CCN)NC1=O`, the MIC amounted to 32 µg/mL (≈ 23.1 µM).

As for `CC(C)CCCCC(=O)N[C@@H](CCN)C(=O)N[C@@H](CCC(N)=O)C(=O)N[C@@H](CCN)C(=O)N[C@H]1CCNC(=O)[C@H]([C@@H](C)O)NC(=O)[C@H](CCN)NC(=O)[C@H](CCN)NC(=O)[C@H](CC(C)C)NC(=O)[C@@H](Cc2ccccc2)NC(=O)[C@H](CCN)NC1=O`, the MIC was determined as 128 µg/mL (≈ 105 µM).

Regarding `CC[C@H](C)CCCCC(=O)N[C@@H](CCN)C(=O)N[C@H](C(=O)N[C@@H](CCN)C(=O)N[C@H]1CCNC(=O)[C@H]([C@@H](C)O)NC(=O)[C@H](CCN)NC(=O)[C@H](CCN)NC(=O)[C@H](CC(C)C)NC(=O)[C@@H](Cc2ccccc2)NC(=O)[C@H](CCN)NC1=O)[C@@H](C)OC(=O)[C@@H](N)CC(C)C`, the MIC came to 4 µg/mL (≈ 3.04 µM).

As for `CC(C)CCCCC(=O)N[C@@H](CCN)C(=O)N[C@@H](CC(=O)O)C(=O)N[C@@H](CCN)C(=O)N[C@H]1CCNC(=O)[C@H]([C@@H](C)O)NC(=O)[C@H](CCN)NC(=O)[C@H](CCN)NC(=O)[C@H](CC(C)C)NC(=O)[C@@H](Cc2ccccc2)NC(=O)[C@H](CCN)NC1=O`, the MIC amounted to 64 µg/mL (≈ 53.2 µM).

With `CCCCCCCC(=O)N[C@@H](CCN)C(=O)N[C@@H](CS)C(=O)N[C@@H](CCN)C(=O)N[C@H]1CCNC(=O)[C@H]([C@@H](C)O)NC(=O)[C@H](CCN)NC(=O)[C@H](CCN)NC(=O)[C@H](CC(C)C)NC(=O)[C@@H](Cc2ccccc2)NC(=O)[C@H](CCN)NC1=O`, the MIC was 8 µg/mL (≈ 6.71 µM).
